Legend:
TNF-α production = experiment: Inhibitory activity against cytokine (TNF-α) production in LPS-stimulated RAW264.7 cells; assay type: cell-based, mouse; conditions: 1 μM test compound, LPS 10 ng/mL; for inhibition at 1 µM: Mus musculus, RAW264.7, 15 h
Outline: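 Mouse RAW264.7 macrophages (5,000 cells/well) stimulated with 10 ng/mL LPS (final) and treated with test compound at 1 μM final for 15 h at 37 °C. Supernatant mouse TNF-α measured by ELISA; % inhibition = 100−(A−B)/(C−B)×100, using unstimulated and LPS-only controls.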

Rat white adipocytes = experiment: Stimulation of differentiation of the adipocytes (Oil Red O); assay type: cell-based; conditions: 100 nM test compound, 5 days, Oil Red O ABS550, control = 100%, blank = 0%, Table 7; for activity at 0.1 µM: Rattus norvegicus, Adipocyte, 120 h, read-out: Rate of Differentiation (%)
Outline: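 Oil Red O lipid staining, absorbance 550 nm after DMSO extraction, quantified differentiation of rat white adipocytes exposed 5 days to compound (final 100 nM, 0.1% DMSO) in differentiation medium. Percent differentiation normalised between cell-free blank (0%) and DMSO control (100%).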

`Cc1csc(NC(=O)c2cc([N+](=O)[O-])ccc2Cl)n1` [Example 3, N-(4-Methylthiazol-2-yl)-(2-chloro-5-nitrophenyl)carboxamide] was tested, and the inhibition at 1 µM (TNF-α production) was 17% and the activity at 0.1 µM (Rat white adipocytes) was 126%.

`O=C(Nc1nc2ccc(Cc3ccc(F)cc3)cc2s1)c1cc([N+](=O)[O-])ccc1Cl` [Example 90, N-[6-(4-Fluorobenzyl)benzothiazol-2-yl]-(2-chloro-5-nitrophenyl)carboxamide] was tested, and the inhibition at 1 µM (TNF-α production) was 19.4% and the activity at 0.1 µM (Rat white adipocytes) was 131%.

In the case of `O=C(Nc1ccc(-c2ccc(O)cc2)cc1)c1cc([N+](=O)[O-])ccc1Cl` [Example 135, N-[4-(4-Hydroxyphenyl)phenyl]-2-(chloro-5-nitrophenyl)carboxamide], the “Inhibitory Activity (%) against TNF-α production” value (TNF-α production; 15 hr) is reported as 16.6% and the “Rate of Differentiation (%)” value (Rat white adipocytes) is reported as 128.0%.

Reference: patent US20030134859A1 (SANKYO COMPANY, LIMITED, priority 2000, published 2003)
